Patent publication US12533300B2, “Self-assembling peptides in the prevention and treatment of cavitated carious lesions” (Credentis AG, priority 2019, dated 2026)

Columns and labels:
[1] = Pulp capping with P11-4 solution under dental material; type: in vivo; settings: exposed pulp covered with P11-4 solution (e.g., 100 μl, 10 mg/mL, pH 8) before Resin Composite
Method: A cavity exposing the pulp is excavated due to dental caries. The pulp is covered with P11-4 solution (e.g., 100 μl, 10 mg/mL, pH 8) before placing of a dental material, e.g., Resin Composite according to the manufacturer's instructions (e.g., application in layers and light curing, as appropriate).

[2] = Release profile of P11-4 from varnish and glass ionomer cement (280 nm); type: physicochemical
Method: The material was prepared and applied as per instructions for use (IFU), usually describing the use of 0.5-0.75 mL of the respective products. To mimic the saliva, Phosphate Buffered Saline (PBS) was used. PBS matches the osmolarity and ion concentrations of the human body—it is isotonic. To mimic the constant saliva flux, the applied amount was placed in a solution equal to 1 h saliva flux, which is about 20 mL. The diffusion of the material was assessed at 500 nm with a photometer.
Release Profile a) Preparation of Varnish (Duraphat) and Paro Amin Fluor Gelée • Per suppliers IFU, it is recommend to add 0.5-1 mL of the varnish to a carious site. The concentration of Congo Red was chosen to lead a distinct signal in the UV Vis. • Place 12 mg Congo Red in 2 mL Eppendorf tube • Add 2 mL of the varnish directly into the tube with a syringe • Mix Congo Red and varnish vigorously until content uniformity is reached • Pick up product with syringe • Place 0.5-0.75 ml of the product on a microscopic slide as a thin film—as recommended per IFU • Let it air dry—as per IFU b) Preparation of Lonofil (Glass Ionomer Restorative Material) • Place 12 mg Congo Red directly in a dental cup • Add 2 spoons of lonofil Plus as per IFU • Add 2 drops of water and mix as per IFU • Place amount of product on microscopic slide c) Incubation
Prepare the PBS Solution with 1% EtOH for preservation • Place slide in 50 ml centrifugation tube • Add 20 mL of PBS • Place on rotating wheel d) Measurement and Calculation • Directly decant 1 mL of incubated fluid into UV-Cell • Measure at 500 nm, control/blank=PBS with 1% EthOH subtract control w/o Congo Red from measured value
Example 7 was in essence carried out as Example 6, but with the self-assembling peptide P11-4, if not otherwise described. 12 mg of P11-4 (credentis AG), in monomeric form, were added to either the varnish Duraphat (Sample ID: AP) or the glass ionomer cement Aqua lonofil Plus (Sample ID BP) in the amounts and under the conditions described above. The incubation was carried out in a static manner at room temperature. Measurement was at 280 nm, and the control value for buffer without peptide was subtracted from the measured value.

[3] = Alkilzy et al., 2018; cited from earlier work
[4] = Release profile of model substance Congo Red from dental materials into PBS (photometer, 500 nm); type: physicochemical
Method: As well-known to the person skilled in the art, a release profile of an agent, i.e. fluoride or self-assembling peptide, depends on the matrix of the material (Mousavinasab et al., 2009, Dent Res J (Isfahan) 6(2):75-81). In the following experiment, the release profile of a model substance mimicking self-assembling peptide, Congo Red, was assessed after the incorporation into the dental material. The material was prepared and applied as per instructions for use (IFU), usually describing the use of 0.5-0.75 mL of the respective products. To mimic the saliva, Phosphate Buffered Saline (PBS) was used. PBS matches the osmolarity and ion concentrations of the human body—it is isotonic. To mimic the constant saliva flux, the applied amount was placed in a solution equal to 1 h saliva flux, which is about 20 mL. The diffusion of the material was assessed at 500 nm with a photometer. Release Profile a) Preparation of Varnish (Duraphat) and Paro Amin Fluor Gelée • Per suppliers IFU, it is recommend to add 0.5-1 mL of the varnish to a carious site. The concentration of Congo Red was chosen to lead a distinct signal in the UV Vis. • Place 12 mg Congo Red in 2 mL Eppendorf tube • Add 2 mL of the varnish directly into the tube with a syringe • Mix Congo Red and varnish vigorously until content uniformity is reached • Pick up product with syringe • Place 0.5-0.75 ml of the product on a microscopic slide as a thin film—as recommended per IFU • Let it air dry—as per IFU b) Preparation of Lonofil (Glass Ionomer Restorative Material) • Place 12 mg Congo Red directly in a dental cup • Add 2 spoons of lonofil Plus as per IFU • Add 2 drops of water and mix as per IFU • Place amount of product on microscopic slide c) Incubation Prepare the PBS Solution with 1% EtOH for preservation • Place slide in 50 ml centrifugation tube • Add 20 mL of PBS • Place on rotating wheel d) Measurement and Calculation • Directly decant 1 mL of incubated fluid into UV-Cell • Measure at 500 nm, control/blank=PBS with 1% EthOH subtract control w/o Congo Red from measured value

Row | Time course of Congo Red release from glass ionomer cement ([4]; Aqua Ionofil Plus, FIG. 4A) | Speed of Congo Red release from varnish relative to glass ionomer cement ([4]; Duraphat versus Aqua Ionofil Plus, FIG. 4A) | Release of Congo Red from paro Amin Fluor Gelée ([4]; Sample 2, used for comparison, 20 mL PBS with 1% EtOH, FIG. 4B) | Release of Congo Red from varnish Duraphat ([4]; sample A1, 12 mg Congo Red in 2 mL varnish, 20 mL PBS with 1% EtOH, FIG. 4A) | Release of Congo Red from glass ionomer cement Aqua Ionofil Plus ([4]; sample B1, 12 mg Congo Red, 20 mL PBS with 1% EtOH, FIG. 4A) | Compound | Pulp symptoms (pulpitis) after pulp capping [1] | Speed of P11-4 release from varnish relative to glass ionomer cement ([2]; Duraphat versus Aqua Ionofil Plus, FIG. 4C) | Release of P11-4 from varnish Duraphat ([2]; sample AP, 12 mg monomeric P11-4, static incubation at room temperature, FIG. 4C) | Release of P11-4 from glass ionomer cement Aqua Ionofil Plus ([2]; sample BP, 12 mg monomeric P11-4, static incubation at room temperature, FIG. 4C) | Amount of released peptide over time ([2]; varnish and glass ionomer cement, measured for several days) | Effect on early carious lesions in combination with fluoride, compared to fluoride alone [3]
1 |  |  |  |  |  | P11-4: self-assembling peptide, sequence QQRFEWEFEQQ (P11-4) | remains symptoms free | quicker | slowly and substantially constantly released | slowly and substantially constantly released | increases with time | additional effect
2 | constant and increases with time | quicker | released | released | released | Nc1c(/N=N/c2ccc(-c3ccc(/N=N/c4cc(S(=O)(=O)O)c5ccccc5c4N)cc3)cc2)cc(S(=O)(=O)O)c2ccccc12 [Congo red, Congo Red] |  |  |  |  |  | 
